# Reference: US20240327882A1, “Methods and Compositions for Increasing Bio-products in Cyanobacteria using Low-Dose Antibiotics” (priority 2023, published 2024)
# “And” between values parts separate entries of the source, which are not always exact repeats. Equal values may be shown once. “Also recorded” adds a separate entry of the source.
# Tests used:
# [1] = tested on: F. diplosiphon strain B481-WT; test: lactate dehydrogenase (LDH) activity / membrane permeability, strain B481-WT; assay type: cell-based, Fremyella diplosiphon
# Description: The assay quantitatively measures released extracellular LDH activity in culture media by enzymatic reaction.
# (§1) F. diplosiphon strains, B481-WT obtained from the UTEX algae repository (Austin, TX, United States), and B481-SD (overexpressed strain with the sterol desaturase gene; accession MH329183) were used in this study. Cultures were grown in liquid BG-11/HEPES medium under wide-spectrum red light (650 nm) with continuous shaking at 170 rpm at 28° C. in an Innova 44R shaker (Eppendorf, Hamburg, Germany) for 6 days. Light fluorescence rate was adjusted to 30 μmol m^−2 s^−1 using the model LI-190SA quantum sensor (Li-Cor, United States). These conditions were kept constant during the study.
# Three classes of antibiotics: β-lactams (ampicillin), aminoglycosides (kanamycin), and tetracycline, were tested in this study. Antibiotic stock solutions (25×-100×) were prepared according to the manufacturer's instructions and stored at −20° C. […] Each antibiotic concentration was mixed with 5 ml F. diplosiphon cells adjusted to OD750 nm and 200 μl of each dilution added. […]
# The flasks were placed in an incubator at 37° C. in the dark for 24 h prior to lactate dehydrogenase (“LDH”) measurement. On day 6, 50 μl cultures were transferred to a 96 well clear polystyrene microplate (Corning, Inc., NY), and fluorescence Epi-RGB mode was used to macro-evaluation of antibiotic-treated both strains (Amersham Imager 680, GE Healthcare Bio-Sciences AB, Uppsala, Sweden). […] Absorbance was measured at 490 nm using a microplate reader (BioTek Synergy H1 Microplate Reader, Agilent, United States) after 2 h incubation in the dark at room temperature. The calculated average of the control included cells without antibiotics or nVZI treatment was accepted as healthy cells and results were determined by subtracting LDH activity of the control from treated cells. Microscopic observations of antibiotic-related membrane and cyanobacterial structure alterations were made using a Cytation 5 Cell Imaging Multi-Mode reader (BioTek® Instruments, Inc., Winooski, United States).
# [2] = tested on: F. diplosiphon strain B481-SD; test: phycocyanin and chlorophyll α autofluorescence, strain B481-SD; assay type: cell-based, Fremyella diplosiphon; settings: for concentrations with significant increase in pigment (phycocyanin and chlorophyll α) autofluorescence / concentrations with significant decrease in pigment (phycocyanin and chlorophyll α) autofluorescence: vs untreated control
# Description: as §1
# (§2) Three classes of antibiotics: β-lactams (ampicillin), aminoglycosides (kanamycin), and tetracycline, were tested in this study. Antibiotic stock solutions (25×-100×) were prepared according to the manufacturer's instructions and stored at −20° C. […] Each antibiotic concentration was mixed with 5 ml F. diplosiphon cells adjusted to OD750 nm and 200 μl of each dilution added.
# (§3) Cells grown in the absence of antibiotics or nZVIs served as control. In order to minimize the effects of light scattering, every other well was left blank. Plates were sealed with a Breathe-Easy sealing membrane (Sigma-Aldrich, MO, Lot #MKCP8263) to prevent evaporative water loss and decrease the risk of contamination.
# (§4) Phycocyanin and chlorophyll α fluorescence in antibiotic-treated and control F. diplosiphon B481-WT and B481-SD were recorded every other day (48 hour intervals) using a microplate reader (BioTek Synergy H1 Microplate Reader, Agilent, USA). While chlorophyll α fluorescence was recorded at an excitation of 420 nm and emission of 680 nm, phycocyanin was measured at excitations of 590 nm, and emissions of 650 nm, see FIGS. 5-20. Maximum PSII quantum yield (Fv/Fo) of treated and controlled F. diplosiphon strains was likewise measured using MINI-PAM (Walz, Effeltrich, Germany) every 48 h for 6 days after incubating in dark for 15 min. The (Fv/Fo) was calculated using the equation
# [3] = tested on: F. diplosiphon strain B481-WT; test: phycocyanin and chlorophyll α autofluorescence, strain B481-WT; assay type: cell-based, Fremyella diplosiphon; settings: for concentrations with significant decrease in pigment (phycocyanin and chlorophyll α) autofluorescence / concentrations with enhanced pigment accumulation: vs untreated control
# Description: as §1, §2, §3, §4
# [4] = tested on: F. diplosiphon strain B481-SD; test: maximum PSII quantum yield (Fv/Fo), strain B481-SD; assay type: cell-based, Fremyella diplosiphon
# Description: as §4
# [5] = tested on: F. diplosiphon strain B481-WT; assay type: cell-based, Fremyella diplosiphon
# Description: (§5) The flasks were placed in an incubator at 37° C. in the dark for 24 h prior to lactate dehydrogenase (“LDH”) measurement. On day 6, 50 μl cultures were transferred to a 96 well clear polystyrene microplate (Corning, Inc., NY), and fluorescence Epi-RGB mode was used to macro-evaluation of antibiotic-treated both strains (Amersham Imager 680, GE Healthcare Bio-Sciences AB, Uppsala, Sweden). Next, 50 μL of the reaction mixture (LDH Cytotoxicity Assay Kit, Thermo Fisher Scientific, United States) was added. After incubation for 30 min. at room temperature in the dark, 50 μL of stock solution was added and mixed gently (Wejnerowski et al., 2018). Absorbance was measured at 490 nm using a microplate reader (BioTek Synergy H1 Microplate Reader, Agilent, United States) after 2 h incubation in the dark at room temperature. The calculated average of the control included cells without antibiotics or nVZI treatment was accepted as healthy cells and results were determined by subtracting LDH activity of the control from treated cells. Microscopic observations of antibiotic-related membrane and cyanobacterial structure alterations were made using a Cytation 5 Cell Imaging Multi-Mode reader (BioTek® Instruments, Inc., Winooski, United States).
# [6] = tested on: F. diplosiphon B481-SD cultures; test: total lipid content by gravimetry; assay type: cell-based, Fremyella diplosiphon; settings: 0.8 mg/L; not statistically different (p>0.05)
# Description: (§6) Total lipids were extracted and GC×GC/TOF-MS analysis of transesterified lipids in F. diplosiphon treated with optimal ampicillin were performed. B481-SD cultures were grown under optimal conditions and harvested on day 15. Total lipids were extracted using the chloroform: methanol method described by Folch et al. (1957). Briefly, cultures were pelleted and lyophilized, and 15 mL methanol/chloroform (2:1, v/v) solvent was added to 100 mg dry weight of cells. The mixture was homogenized, incubated on ice, and centrifuged at 3000 rpm for 10 min to collect the organic phase. The biomass residue was re-extracted thrice with 4 mL of methanol and 2 mL of chloroform. The lower organic phase was dried in a rotary evaporator (Heidolph, IL, USA), and the total lipid content was estimated by gravimetry.
# [7] = tested on: F. diplosiphon B481-SD cultures; test: GC×GC/TOF-MS analysis of transesterified lipids (FAMEs); assay type: cell-based, Fremyella diplosiphon; settings: 0.8 mg/L
# Description: as §6
# Simultaneous extraction and transesterification of F. diplosiphon lipids were performed according to the method described by Wahlen et al. (2011). […] The reaction was quenched with 4 ml chloroform, washed in distilled water, and centrifuged at 2000 rpm for phase separation. The chloroform phase containing FAMEs and lipids was transferred to a new flask, and the remaining biomass was washed twice with 2 mL chloroform and mixed. The extracted FAMEs were subjected to high-resolution two-dimensional gas chromatography-time of flight mass spectrometry (GC×GC/TOF-MS) as described by Tabatabai et al. (2018).
# [8] = tested on: F. diplosiphon strain B481-WT; test: maximum PSII quantum yield (Fv/Fo), strain B481-WT; assay type: cell-based, Fremyella diplosiphon
# Description: as §4
# Microcystis aeruginosa = settings: cited from earlier work
# [9] = tested on: F. diplosiphon strain B481-SD; test: lactate dehydrogenase (LDH) activity / membrane permeability, strain B481-SD; assay type: cell-based, Fremyella diplosiphon
# [10] = tested on: F. diplosiphon strain B481-SD; assay type: cell-based, Fremyella diplosiphon
# Description: as §5
# F. diplosiphon = settings: day 6; strain not stated
SMILES,concentration of maximum LDH activity [1],concentrations with significant increase in pigment (phycocyanin and chlorophyll α) autofluorescence [2],concentrations with significant decrease in pigment (phycocyanin and chlorophyll α) autofluorescence [3],concentration above which filament fragmentation and alteration of cell shape were observed [5],concentrations with significant decrease in pigment (phycocyanin and chlorophyll α) autofluorescence [2],concentration of maximum LDH activity [9],concentrations with enhanced pigment accumulation [3],concentration of maximal LDH activity (membrane permeability) (F. diplosiphon),also measured
CC1(C)S[C@@H]2[C@H](NC(=O)[C@H](N)c3ccccc3)C(=O)N2[C@H]1C(=O)O [ampicillin],0.4 mg/L,0.2 to 25.6 mg/L and 0.2 to 51.2 mg/L,3.2 to 102.5 mg/L,higher than 25.6 mg/L,–,–,–,–,"concentrations with significant increase in Fv/Fo ([4]; day 4, vs control): 0.2 to 3.2 mg/L; total lipid content compared to the control [6]: slight increase; monounsaturated fatty acids compared to the control [7]: Enhanced amounts; polyunsaturated fatty acids compared to the control [7]: Enhanced amounts; saturated fatty acids (SFAs) compared to the control [7]: augmentation; also recorded: Enhanced amounts; methyl ester of hexadecanoic acid (C16: 0) level vs untreated control ([7]; p<0.05): significantly higher; methyl octadecadienoate (C18: 2) level vs untreated control ([7]; p<0.05): significantly higher; methyloctadecenoate (C18: 1) level vs untreated control ([7]; p<0.05): significantly higher; ç-Linolenic acid (C18: 3) level vs untreated control ([7]; p<0.05): significantly higher"
CO/N=C(\C(=O)N[C@@H]1C(=O)N2C(C(=O)O)=C(COC(C)=O)CS[C@H]12)c1csc(N)n1 [cefotaxime],–,–,–,–,0.8 to 102.5 mg/L,–,–,–,concentration above which there is no recovery of Fv/Fo [4]: higher than 1.6 mg/L; concentration above which there is no recovery of Fv/Fo [8]: > 0.05 mg/L
CC[C@H]1OC(=O)[C@H](C)[C@@H](O[C@H]2C[C@@](C)(OC)[C@@H](O)[C@H](C)O2)[C@H](C)[C@@H](O[C@@H]2O[C@H](C)C[C@H](N(C)C)[C@H]2O)[C@](C)(O)C[C@@H](C)C(=O)[C@H](C)[C@@H](O)[C@]1(C)O [erythromycin],–,–,–,–,–,–,–,–,low dosages reported to trigger photosynthetic activity (Microcystis aeruginosa): < 20 mg/L
NC[C@H]1O[C@H](O[C@H]2[C@H](O)[C@@H](O[C@H]3O[C@H](CO)[C@@H](O)[C@H](N)[C@H]3O)[C@H](N)C[C@@H]2N)[C@H](O)[C@@H](O)[C@@H]1O [kanamycin],0.4 mg/L,0.2 to 3.2 mg/L,6.4 to 102.5 mg/L,> 51.2 µg/mL,6.4 to 102.5 mg/L,0.8 mg/L,0.2 to 3.2 mg/L,0.8 mg/L,concentrations with decrease in Fv/Fo ratio ([8]; exposure for 6 days): 1.6 to 102.5 mg/L; concentrations with significant increase in Fv/Fo ([8]; vs control group): 0.2 to 1.6 mg/L; concentration above which filament fragmentation and alteration of cell shape were observed [10]: > 51.2 µg/mL
CN(C)[C@@H]1C(O)=C(C(N)=O)C(=O)[C@@]2(O)C(O)=C3C(=O)c4c(O)cccc4[C@@](C)(O)[C@H]3C[C@@H]12 [tetracycline],0.4 mg/L,0.8 to 12.8 mg/L,25.6 to 410 mg/L,–,102.5 to 410 mg/L,0.8 mg/L,0.8 to 12.8 mg/L,0.8 mg/L,concentrations with significant increase in pigment autofluorescence ([2]; day 6): 0.8 to 12.8 mg/L; concentrations with significant increase in pigment autofluorescence ([3]; day 6): 0.8 to 12.8 mg/L; concentrations with decrease in Fv/Fo ratio ([4]; exposure for 6 days): higher than 102.5 mg/L
